According to patent US20110178052A1, “9-ALPHA ESTRATRIENE DERIVATIVES AS ER-BETA SELECTIVE LIGANDS FOR THE PREVENTION AND TREATMENT OF INTESTINAL CANCER” (Bayer Schering Pharma Aktiengesellschaft, priority 2008, published 2011):
Entries after “also recorded” stand apart in the source; their conditions may differ.

Experiments:
Type in all cases: in vivo, rat
OVX rats = experiment: Uterine wet weights of ovariectomized rats after 3 weeks of treatment; conditions: for uterine wet weights: s.c., 3 weeks, E2 4 μg, GEN 10 mg, ALPHA 10 μg, BETA I 100 μg kg-1 b.wt d-1, vs OVX
Procedure: (§1) Post pubertal animals were ovariectomized (OVX) at the age of three months and weighing 200-220 g. After 14 days of endogenous hormonal decline the animals were treated with the test compounds or vehicle for three weeks. The animals were randomly allocated to treatment and vehicle groups (n=6). E2 (4 μg kg-1 b.wt d-1), GEN (10 mg kg-1 b.wt d-1), ALPHA (10 μg kg-1 b.wt d-1), BETA 1 (100 μg kg-1 b.wt d-1), BETA II (5-15-50 μg kg-1 b.wt d-1) and ICI (3 mg kg-1 b.wt d-1) were dissolved in dimethylsulfoxide (DMSO) (200 μl/KG b. wt/d) and corn oil (800 μl/KG b. wt/d) for s.c. administration.
(§2) Animals were sacrificed by decapitation after light anesthesia with CO2 inhalation. Uteri and intestinal tissues were prepared free of fat and were fixed in 4% formalin (for immunohistochemical analysis) and liquid nitrogen (for molecular biology). The uterine wet weights were determined.

PCNA [1] = experiment: Western Blot analysis of PCNA in ileal mucosa; conditions: for PCNA expression of intestinal mucosa cells, Western Blot densitometric evaluation: OVX rats, s.c., 3 weeks, E2 4 μg, GEN 10 mg, ALPHA 10 μg, BETA I 100 μg kg-1 b.wt d-1
Procedure: as §1
(§3) Ileal mucosa and rectal colon were dissected from the animals and immediately stored in liquid nitrogen. Pooled frozen tissue (n=6 animals per group) was powdered and homogenized in a buffer (623.5 nM Tris pH 8 EDTA) containing enzyme inhibitors (5 mg/ml aprotonin, 5 mg/ml leupeptin, 1 mg/ml pepstatin-A, 5 mg/ml antipain, 100 mM pefac in 0.5 M EDTA, pH 8). Protein concentrations were determined by the method of Lowry (Dc Protein Assay, Bio-Rad). Equal amounts of sample (40 μg protein) were loaded on a Protean II ready Gel (Bio-Rad).
(§4) After electrophoresis and separation, samples were transferred onto nitrocellulose membranes and blocked with 5% BSA in Phosphate (100 mM)-buffered saline solution (pH 7.4) at room temperature for 2 hours. The immobilized proteins were quantitatively detected using specific antibodies for actin and GAPDH (A5060 and G8795, Sigma-Aldrich, Steinheim, Germany), PCNA Clone PC 10 (Dako, Glostrup, Denmark), M30 Cytodeath (ALX-804-590, Alexis, San Diego, Calif., USA) and active caspase-3 (557035, BD Pharmingen, Heidelberg, Germany).
(§5) Polyclonal Swine Anti-Rabbit Immunglobulins/HRP and Polyclonal Rabbit Anti-Mouse Immunglobulins/HRP (P0217 and P0260, Dako, Glostrup, Denmark) were used as species-specific HRP-conjugated secondary antibodies.
(§6) Blot signals were visualized by the chemoluminescent POD-Substrate (Lumi-Light Plus, Roche Diagnostics, Mannheim, Germany) and a Fluorchem Luminescent Imager (Alpha Innotech, CA, USA).
(§7) The protein bands were quantified by densitometry using ImageJ 1.38. To account for in homogenous protein loading of the slots we calculated the ratio of […] (PCNA, M30, active caspase-3).

active caspase-3 = experiment: Western Blot analysis of active caspase-3 in ileal mucosa; conditions: for activation of caspase-3: OVX rats, s.c., 3 weeks, E2 4 μg, GEN 10 mg, ALPHA 10 μg, BETA I 100 μg kg-1 b.wt d-1
Procedure: as §1, §3, §4, §5, §6, §7

PCNA [2] = experiment: Immunohistochemical staining of PCNA in ileal mucosa cells; conditions: OVX rats, s.c., 3 weeks; E2 4 μg, GEN 10 mg, ALPHA 10 μg, BETA I 100 μg kg-1 b.wt d-1
Procedure: as §1, §2
(§8) Formalin-fixed intestinal samples were embedded in paraffin, sliced with a microtome (7 μm sections). After deparaffinization, antigen retrieval was performed in an incubator for 20 h at 60° C. in 0.01 M citrate buffer pH 6.0.
Subsequently, endogenous peroxidases were blocked for 20 min. with 3% hydrogen peroxide and the slides were covered with a 0,25% Triton X-100 solution for 10 min.
The primary antibody, PCNA Clone PC10 (Dako, Glostrup, Denmark) was applied at dilutions of 1:100, respectively.
After 1 h incubation with the primary antibodies, samples were incubated with the secondary antibody: Polyclonal Goat Anti-Mouse Immunglobulins/Biotinylated (Dako, Glostrup, Denmark).
Afterwards the sections were covered with Streptavidin-biotinylated Horseradish Peroxidase Complex (GE Healthcare, Little Chalfont Buckinghamshire, UK) at a dilution of 1:400. The samples were developed with DAB for 10 min. For negative controls, slides were immunostained in the absence of the primary antibody.
Quantitative analysis was performed in complete crypts of normal mucosa. Brown nuclear staining was indicative of a positive PCNA signal.

PCNA mRNA = PCNA mRNA expression in the intestinal mucosa; conditions: OVX rats, FIG. 3B
Procedure: as §1

cytokeratin 18 (M 30) = experiment: Western Blot analysis of cytokeratin 18 cleavage (M30) in colon; conditions: OVX rats, BETA II at 5 μg
Procedure: as §1
Ileal mucosa and rectal colon were dissected from the animals and immediately stored in liquid nitrogen. […] Protein concentrations were determined by the method of Lowry (Dc Protein Assay, Bio-Rad). Equal amounts of sample (40 μg protein) were loaded on a Protean II ready Gel (Bio-Rad).
as §4, with “Germany). […]” for “Germany).”

intestinal mucosa = experiment: Doses effect of BETA II on the intestinal mucosa
Procedure: as §1
BETA II was tested at 5, 15 and 50 μg kg-1 b.wt d-1.
Ileal mucosa and rectal colon were dissected from the animals and immediately stored in liquid nitrogen. […] Protein concentrations were determined by the method of Lowry (Dc Protein Assay, Bio-Rad). Equal amounts of sample (40 μg protein) were loaded on a Protean II ready Gel (Bio-Rad). […]
as §7

PCNA [3] = experiment: Immunohistochemical staining of PCNA in colonic mucosa cells; conditions: OVX rats, immunohistochemistry of rectal colonic cross sections; BETA II at 5 μg/Kg
Procedure: as §1, §2, §8
Subsequently, endogenous peroxidases were blocked for 20 min. with 3% hydrogen peroxide and the slides were covered with a 0,25% Triton X-100 solution for 10 min. […]
Quantitative analysis was performed in complete crypts of normal mucosa. […]

[4] = BETA I and BETA II at the same concentration (5 μg), pooled ileal tissue, FIG. 6
[5] = OVX rats co-treated with BETA I 100 μg and ICI 3 mg kg-1 b.wt d-1

SMILES	uterine wet weights (OVX rats)	PCNA expression of intestinal mucosa cells, Western Blot densitometric evaluation (PCNA [1]; pooled ileal tissue)	activation of caspase-3 (active caspase-3; pooled ileal tissue)	PCNA protein expression, immunostaining of ileal cross sections (PCNA [2])	PCNA mRNA Expression in the intestinal Mucosa (PCNA mRNA)	cleavage of cytokeratin 18 (M 30) in colonic mucosa cells (cytokeratin 18 (M 30))	PCNA expression in colonic mucosa cells (PCNA [3])	further results
C[C@]12CC[C@@H]3c4ccc(O)cc4CC[C@H]3[C@@H]1C[C@H]1OC(=O)C[C@]12O [ALPHA, 3,17-dihydroxy-19-nor-17α-pregna-1,3,5(10)-triene-21,16α-lactone]	strongly increased	elevation	moderately	slightly induced	–	–	–	–
C=C[C@@]12CCc3cc(O)ccc3[C@H]1CC[C@@]1(C)[C@H]2CC[C@@H]1O [BETA I, 8β-vinyl-estra-1,3,5(10)-triene-3,17β-diol]	no significant uterus stimulation	reduced	dramatically promoted	significantly reduced	diminished	–	–	–
C=C[C@]12CC[C@]3(C)[C@@H](F)[C@H](O)C[C@H]3[C@@H]1CCc1cc(O)ccc12 [BETA II, 17β-Fluoro-9α-vinyl-estra-1,3,5(10)-triene-3,16α-diol]	–	–	–	–	–	dramatically induced; also recorded: significant stimulation	reduced	effect on the uterus weight (OVX rats; BETA II at 5 μg/kg): does not show any measurable effect; down regulation of the expression of the proliferation marker PCNA compared with BETA I (PCNA [1]; [4]): improved effect; activation of the caspase-3 compared with BETA I (active caspase-3; [4]): at a higher level; activity relative to BETA I on effects regulating the intestinal homeostasis (intestinal mucosa; BETA II at 5 μg/kg vs BETA I): about 20 times; doses effect in the intestinal mucosa (intestinal mucosa; OVX rats, BETA II tested at 5, 15 and 50 μg kg-1 b.wt d-1): strongest effect at lowest tested dose of 5 μg/kg
C[C@]12CC[C@@H]3c4ccc(O)cc4CC[C@H]3[C@@H]1CC[C@@H]2O [E2, 17β-estradiol]	strong stimulation	not affected	remained on a low level	slightly induced	–	only marginally increased	–	–
O=c1c(-c2ccc(O)cc2)coc2cc(O)cc(O)c12 [GEN, 4′,5,7-trihydroxyisoflavone]	faint, although significant increase	reduced	moderately	significantly reduced	diminished	–	reduced	–
C[C@]12CC[C@@H]3c4ccc(O)cc4C[C@@H](CCCCCCCCC[S+]([O-])CCCC(F)(F)C(F)(F)F)[C@H]3[C@@H]1CC[C@@H]2O (some centres unmarked) [ICI]	–	–	–	–	–	–	–	effect of co-administration of ICI on anti-proliferative effect (PCNA) of BETA I (PCNA [1]; [5]): antogonization; effect of co-administration of ICI on pro-apoptotic effect (active caspase-3) of BETA I (active caspase-3; [5]): antogonization
